Results on five compounds are retold here after paper PMC7782168, “Synthesis, telomerase inhibitory and anticancer activity of new 2-phenyl-4H-chromone derivatives containing 1,3,4-oxadiazole moiety” (Journal of Enzyme Inhibition and Medicinal Chemistry, 2020).

The test system of data set [1] is human normal liver cell (L-02). The data set can be described thus: Toxicity against human normal liver cells, MTT assay. In kind it is cell-based. The note with it: triplicate. As for the experimental part: (§1) A375, MDA-MB-231, MGC-803, SMMC-7721, SGC-7901 and L-02 cell lines were cultured in DMEM medium supplemented with 10% (V/V) heat-inactivated fetal bovine serum (FBS) (Biological Industries, Israel) along with 100 U/mL penicillin and […] streptomycin (Beyotime, China). Cells were grown in a humidified 5% CO2 atmosphere at 37 °C and maintained in a logarithmic growth phase for all experiments.
(§2) 2.5. Anticancer assay[23]
In order to determine the selective cytotoxicity of selected compounds, we subsequently conducted a proliferative inhibition assay with human normal liver cell (L-02). […] Therefore, in combination with the above points, it is quite meaningful to further explore the mechanisms of this compound.

Data set [2] concerns SGC-7901 (human gastric cancer cell). Nature of the data set: In vitro anticancer (antiproliferative) MTT assay, SGC-7901. In kind it is cell-based. The note with it: Homo sapiens, SGC-7901, mean ± SD of three experiments in triplicate. As for the experimental part:
as §1, §2

Data set [3] concerns MGC-803 (human gastric cancer cell). Nature of the data set: In vitro anticancer (antiproliferative) MTT assay, MGC-803. In kind it is cell-based. The note with it: Homo sapiens, MGC-803, mean ± SD of three experiments in triplicate. The method, then: as §1, §2
In data set [4] the test system is MDA-MB-231 (human breast cancer cell). Nature of the data set: In vitro anticancer (antiproliferative) MTT assay, MDA-MB-231. In kind it is cell-based. The note with it: Homo sapiens, MDA-MB-231, mean ± SD of three experiments in triplicate. The method, then: as §1, §2
In data set [5] the test system is A375 (human melanoma cell). Nature of the data set: In vitro anticancer (antiproliferative) MTT assay, A375. In kind it is cell-based. The note with it: Homo sapiens, A-375, mean ± SD of three experiments in triplicate. The method, then: as §1, §2
The target of the next data set is T1, telomerase (Homo sapiens, UniProt O14746).
T1 construct: assayed for telomerase activity using MGC-803 cells extract; endogenous in cells; host or cells: MGC-803 cell extract
T1 sequence (O14746 whole entry): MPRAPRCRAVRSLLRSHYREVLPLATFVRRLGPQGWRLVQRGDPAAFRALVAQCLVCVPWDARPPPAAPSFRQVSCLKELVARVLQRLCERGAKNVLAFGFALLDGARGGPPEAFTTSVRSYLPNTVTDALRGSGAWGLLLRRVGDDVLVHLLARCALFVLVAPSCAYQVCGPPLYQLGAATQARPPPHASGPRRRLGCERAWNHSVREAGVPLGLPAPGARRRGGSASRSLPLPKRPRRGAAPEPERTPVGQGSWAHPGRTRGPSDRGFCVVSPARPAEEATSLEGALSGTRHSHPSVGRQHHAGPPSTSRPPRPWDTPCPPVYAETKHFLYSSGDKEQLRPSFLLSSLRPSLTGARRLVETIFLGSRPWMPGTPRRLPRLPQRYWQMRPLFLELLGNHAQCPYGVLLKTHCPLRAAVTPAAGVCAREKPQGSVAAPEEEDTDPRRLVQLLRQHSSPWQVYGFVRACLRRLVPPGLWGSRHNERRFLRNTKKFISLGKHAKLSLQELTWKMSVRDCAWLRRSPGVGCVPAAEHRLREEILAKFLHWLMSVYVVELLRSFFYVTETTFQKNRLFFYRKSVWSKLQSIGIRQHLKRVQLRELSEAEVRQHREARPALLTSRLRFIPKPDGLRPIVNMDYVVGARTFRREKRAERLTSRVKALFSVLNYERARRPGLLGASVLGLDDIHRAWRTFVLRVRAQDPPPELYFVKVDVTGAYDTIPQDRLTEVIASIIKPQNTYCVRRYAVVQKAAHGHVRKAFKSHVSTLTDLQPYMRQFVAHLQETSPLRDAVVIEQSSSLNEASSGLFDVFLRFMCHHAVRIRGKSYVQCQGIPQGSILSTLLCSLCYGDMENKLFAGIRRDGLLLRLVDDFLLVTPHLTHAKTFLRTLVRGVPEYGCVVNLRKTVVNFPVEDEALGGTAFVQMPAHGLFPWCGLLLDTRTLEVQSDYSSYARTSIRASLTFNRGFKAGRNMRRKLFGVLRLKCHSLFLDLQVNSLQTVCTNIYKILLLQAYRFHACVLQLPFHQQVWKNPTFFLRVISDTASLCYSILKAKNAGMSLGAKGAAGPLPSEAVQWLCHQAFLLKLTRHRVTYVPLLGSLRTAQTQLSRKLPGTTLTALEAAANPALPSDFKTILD
T1 sequence (O60832 2-514 partner limits assumed): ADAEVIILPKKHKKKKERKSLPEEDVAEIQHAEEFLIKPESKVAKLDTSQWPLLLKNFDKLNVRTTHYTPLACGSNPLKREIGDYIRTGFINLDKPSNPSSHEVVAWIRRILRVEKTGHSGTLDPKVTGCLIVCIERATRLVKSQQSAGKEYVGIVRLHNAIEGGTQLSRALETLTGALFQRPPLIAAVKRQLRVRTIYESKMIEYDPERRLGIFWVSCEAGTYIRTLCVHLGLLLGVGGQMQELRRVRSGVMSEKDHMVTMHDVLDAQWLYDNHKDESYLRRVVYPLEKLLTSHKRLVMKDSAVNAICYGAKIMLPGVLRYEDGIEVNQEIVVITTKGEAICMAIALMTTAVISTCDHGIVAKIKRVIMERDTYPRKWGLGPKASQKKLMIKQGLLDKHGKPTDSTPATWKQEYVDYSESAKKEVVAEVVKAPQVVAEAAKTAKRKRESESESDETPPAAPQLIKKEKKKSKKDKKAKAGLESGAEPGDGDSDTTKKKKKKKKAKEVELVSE
T1 sequence (Q9NPE3 whole entry partner): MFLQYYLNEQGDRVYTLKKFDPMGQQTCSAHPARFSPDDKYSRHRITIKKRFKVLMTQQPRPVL
T1 sequence (Q9NX24 whole entry partner): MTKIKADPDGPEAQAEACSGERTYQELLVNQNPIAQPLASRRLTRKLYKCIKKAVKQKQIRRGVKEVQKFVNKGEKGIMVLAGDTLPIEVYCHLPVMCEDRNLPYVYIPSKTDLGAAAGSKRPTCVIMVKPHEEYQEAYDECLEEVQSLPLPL
T1 sequence (Q9NY12 whole entry partner): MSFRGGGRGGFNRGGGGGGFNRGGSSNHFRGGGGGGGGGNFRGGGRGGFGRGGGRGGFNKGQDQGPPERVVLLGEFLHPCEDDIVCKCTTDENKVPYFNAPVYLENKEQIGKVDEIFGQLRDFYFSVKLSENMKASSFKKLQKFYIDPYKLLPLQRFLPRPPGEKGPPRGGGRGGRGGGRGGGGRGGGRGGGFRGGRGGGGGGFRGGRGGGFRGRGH
Nature of the data set: Telomerase activity assay using MGC-803 cells extract. The note with it: mean ± SD. The data set is classed as biochemical.

The test system of data set [6] is SMMC-7721 (human hepatoma cell). The data set can be described thus: In vitro anticancer (antiproliferative) MTT assay, SMMC-7721. In kind it is cell-based. The note with it: Homo sapiens, SMMC-7721, mean ± SD of three experiments in triplicate. The method, then: as §1, §2
The test system of another data set is dyskerin. Nature of the data set: Western blotting of dyskerin expression in MGC-803 cells. The data set is classed as cell-based, human. The note with it: MGC-803 cells, 3, 6, 9 µM, 48 h. As for the experimental part:
(§3) Human MGC-803 cells were lysed with RIPA lysis buffer (Beyotime, China). Whole extracts were prepared, and protein concentration was detected using a BCA protein assay kit (Beyotime, China). The protein samples were separated by SDS-PAGE and blotted onto a PVDF membrane (Millipore Corp, Billerica, MA). After blockade of non-specific protein binding, […] blots were incubated at 4 °C for 8 h with primary antibodies. After extensive washing in TBS/Tween-20, the membranes were incubated at room temperature for 1 h with secondary antibodies. After washed in TBS/Tween-20, the blots were processed with distilled water for detection of antigen using the enhanced chemiluminescence system. Proteins were visualised with ECL-chemiluminescent kit (ECL-plus, Thermo Scientific).
(§4) Dyskerin-NOP10-NHP2, trimer proteins are the core components of telomerase, playing a key role in the stabilisation, activation and assembly of telomerase, and the loss of dyskerin function can influence telomerase activity. Dyskerin over-expression associated with a variety of tumour types has been reported. […] Meanwhile, NHP2[39] and NOP10[40], as the important components of dyskerin-NHP2-NOP10 trimer, had also been assessed together. […]
(§5) Figure 5. […] The proteins expression of Dyskerin, NOP10 and NHP2 were analysed by Western blotting. The results are expressed as relative expression against control expression. n = 3. […]

In data set [7] the test system is MGC-803 cells. The data set can be described thus: Apoptosis assay, Annexin V-FITC/PI flow cytometry. The data set is classed as cell-based, human. The note with it: 48 h, untreated 4.27%. The method, then:
For cell apoptosis analysis, we employed annexin V-FITC/PI apoptosis detection kit (BestBio, China). MGC-803 cells in logarithmic growth phase were treated with compound A33 at different concentrations for 48 h. Cells were collected in cold PBS by centrifugation for 5 min at 1000 g. And then cells were re-suspended at a buffer (1 × 10^6 cells/mL), stained with FITC-labeled annexin V and PI for 20 min in the dark and immediately analysed on FACSVerse Flow Cytometer (Becton Dickinson).
To determine whether compound A33 meditated inhibition of proliferation was related with apoptosis, MGC-803 cells was selected for examination. The Annexin V-FITC/PI apoptosis detection kit was used in cell apoptosis analysis. […] This is consistent with the fact that telomerase inhibitors can induce apoptosis and thus inhibit the unlimited proliferation of tumour cells.
Figure 4. Percentage of apoptotic cells was determined in MGC-803 cells by Annexin-V FITC/PI staining. MGC-803 cells were treated with increasing concentrations of compound A33 for 48 h and stained with Annexin-V FITC/PI. Apoptotic ratio increased, accompanied with the increase of concentration. TEXT PRINTED IN THE PICTURE: A33: Q1-UL(1.08%) (3μM); Q1-UR(9.20%) (3μM); Q1-LL(87.53%) (3μM); Q1-LR(2.19%) (3μM); Q1-UL(4.60%) (6μM); Q1-UR(29.31%) (6μM); Q1-LL(38.09%) (6μM); Q1-LR(28.00%) (6μM); Q1-UL(4.54%) (9μM); Q1-UR(49.18%) (9μM); Q1-LL(8.50%) (9μM); Q1-LR(37.78%) (9μM) DOUBTS OF THE COPYIST ABOUT THIS PICTURE: A33 3μM, Q1-UR: 9.20% partly covered by plot points, first digit 9 or 8 / A33 6μM, Q1-UR: 29.31% partly covered by plot points, digits not fully certain / A33 9μM, Q1-UR: 49.18% partly covered by plot points, digits not fully certain

Another data set deals with NHP2. The data set can be described thus: Western blotting of NHP2 expression in MGC-803 cells. In kind it is cell-based, human. The note with it: MGC-803 cells, 3, 6, 9 µM, 48 h. As for the experimental part:
as §3, §4, §5

Data set [8] concerns MGC-803 cells. Nature of the data set: Cell cycle analysis by flow cytometry (PI staining). The data set is classed as cell-based, human. The note with it: 48 h. The method, then:
For cell cycle analysis, cell cycle kit (Beyotime, China) was performed. MGC-803 cells were treated with compound A33 at different concentrations for 48 h. Untreated and treated cells were harvested, and then MGC-803 cells were washed three times using cold PBS. And then cells were fixed in 70% ethanol at −20 °C for 1 h. After fixation, cells were washed with cold PBS and stained with 0.5 ml of propidium iodide (PI) staining buffer, which contain […] RNase A and 50 µg/mL PI, at 37 °C for 30 min in the dark. Analyses were conducted on FACSVerse Flow Cytometer (Becton Dickinson). The experiments were repeated three times.
To verify whether cell cycle arrest leads to decrease cells proliferation, we used flow cytometric analysis to measure the effect of this compound on induction of cell cycle. […] In a word, this compound can induce cell cycle arrest at G2/M phase in a concentration-dependent manner, delaying cell cycle progression, thereby resulting in cell proliferation inhibition.
Figure 3. Cell cycle distribution induced by compound A33 was measured in MGC-803 cells. Cells were treated with compound A33 of 3, 6 and 9 μM for 48 h. Samples were analysed by flow cytometry and received results were analysed by modifit software. TEXT PRINTED IN THE PICTURE: A33: Dip G1:39.11% (3μM); Dip G2:29.46% (3μM); Dip S: 31.44% (3μM); Dip G1:35.72% (6μM); Dip G2:50.46% (6μM); Dip S: 13.82% (6μM); Dip G1:32.62% (9μM); Dip G2:55.13% (9μM); Dip S: 12.25% (9μM)

A further data set relates to NOP10. Nature of the data set: Western blotting of NOP10 expression in MGC-803 cells. In kind it is cell-based, human. The note with it: MGC-803 cells, 3, 6, 9 µM, 48 h. The method, then: as §3, §4, §5

Turning to `COc1cc(OC)c2c(=O)c(OCC(=O)Nc3nnc(-c4ccc(C(F)(F)F)cc4)o3)c(-c3cc(OC)c(OC)c(OC)c3)oc2c1` [A16, 2–(5,7-dimethoxy-4-oxo-2–(3,4,5-trimethoxyphenyl)-4H-chromen-3-yloxy)-N-(5–(4-(trifluoromethyl)phenyl)-1,3,4-oxadiazol-2-yl)acetamide], the melting point lay within 231 to 233 °C. The IC50 in [1] is 900 ± 110 µM. The compound also registered an IC50 in data set [2] of more than 100 µM. This compound came in with an IC50 in data set [3] of more than 100 µM. Further, the IC50 in data set [4] was more than 100 µM. This compound had an IC50 in data set [5] of 10.1 ± 0.52 µM. 0.62 ± 0.11 µM corresponded to half-maximal inhibition on telomerase (IC50). In [6], this compound returned an IC50 of more than 100 µM.
Regarding `COc1cc(OC)c2c(=O)c(OCC(=O)Nc3nnc(/C=C/c4ccccc4)o3)c(-c3cc(OC)c(OC)c(OC)c3)oc2c1` [A33, (E)-2–(5,7-dimethoxy-4-oxo-2–(3,4,5-trimethoxyphenyl)-4H-chromen-3-yloxy)-N-(5-styryl-1,3,4-oxadiazol-2-yl)acetamide], in the data set with dyskerin, the “Expression level of dyskerin protein” value is reported as “reduced in a concentration-dependent manner”. Further, the IC50 amounted to 2210 ± 170 µM in data set [1]; 10 ± 0.51 µM in data set [2]; 8.76 ± 0.25 µM in data set [3]; 9.89 ± 0.44 µM in [4]; 11.2 ± 0.69 µM in data set [5]; 0.44 ± 0.09 µM against telomerase. Moreover, half-maximal inhibition in data set [6] (IC50) was put at 9.67 ± 0.82 µM. Besides, the “Percentage of AnnexinV-FITC binding MGC-803 cells” value came to 11.39% in the data set with MGC-803 cells [7] (3 μM (first of increasing concentrations, Figure 4)); 57.31% in the data set with MGC-803 cells [7] (6 μM (second of increasing concentrations, Figure 4)); 86.96% in the data set on MGC-803 cells [7] (9 μM (third of increasing concentrations, Figure 4)). For the same compound, the “Expression of NHP2” value in the data set on NHP2 is “lower level than control group”. Also, the “G0/G1 phase distribution (Dip G1)” value was found to be 39.11% in the data set with MGC-803 cells [8] (3 μM), 35.72% in the data set on MGC-803 cells [8] (6 μM) and 32.62% in the data set with MGC-803 cells [8] (9 μM). The figures for the “G2/M phase distribution (Dip G2)” value in the data set on MGC-803 cells [8] (3 μM), in the data set with MGC-803 cells [8] (6 μM) and with MGC-803 cells [8] (9 μM) were 29.46%, 50.46% and 55.13%, respectively. Moreover, the “S phase distribution (Dip S)” value amounted to 31.44% in the data set on MGC-803 cells [8] (3 μM), 13.82% with MGC-803 cells [8] (6 μM) and 12.25% with MGC-803 cells [8] (9 μM). Moreover, the “Increase of the G2/M phase distribution versus untreated” value in the data set on MGC-803 cells [8] (increasing concentrations (3, 6, 9 µM), from 9.76 to 55.13%) was 45.37%. The “Expression of NOP10” value in the data set with NOP10 was “lower level than control group”.
With `COc1cc(OC)c2c(=O)c(OCC(=O)Nc3nnc(-c4cccc(OC(F)(F)F)c4)o3)c(-c3cc(OC)c(OC)c(OC)c3)oc2c1` [A20, 2–(5,7-dimethoxy-4-oxo-2–(3,4,5-trimethoxyphenyl)-4H-chromen-3-yloxy)-N-(5–(3-(trifluoromethoxy)phenyl)-1,3,4-oxadiazol-2-yl)acetamide], the melting point lay within 221 to 223 °C. Also, the IC50 in [1] is 620 ± 240 µM. This compound yielded a 50% inhibitory concentration (IC50) in data set [2] of 10.2 ± 0.65 µM. The IC50 in data set [3] amounted to 6.29 ± 0.36 µM. The compound further showed an IC50 in data set [4] of 19.5 ± 1 µM. Also, in [5], the IC50 was determined as 8.92 ± 0.69 µM. Moreover, the IC50 on telomerase was found to be 0.92 ± 0.17 µM. For the same compound, the IC50 in data set [6] is more than 100 µM.
`COc1cc(OC)c2c(=O)c(OCC(=O)Nc3nnc(-c4ccc(F)cc4)o3)c(-c3cc(OC)c(OC)c(OC)c3)oc2c1` [A2, 2–(5,7-dimethoxy-4-oxo-2–(3,4,5-trimethoxyphenyl)-4H-chromen-3-yloxy)-N-(5–(4-fluorophenyl)-1,3,4-oxadiazol-2-yl)acetamide] came in with a melting point of 221 to 223 °C. Moreover, in [1], the IC50 came out at 1370 ± 430 µM. The same compound returned an IC50 in data set [2] of 56.9 ± 1.24 µM. The compound also came in with an IC50 in [3] of 17.3 ± 2.21 µM. In data set [4], this compound showed an IC50 of 25.1 ± 2.1 µM. The IC50 in data set [5] stood at 11 ± 1.54 µM. The IC50 at telomerase came out at 0.77 ± 0.13 µM. This compound had an IC50 in data set [6] of 8.07 ± 1.3 µM.
The compound `COc1cc(OC)c2c(=O)c(OCC(=O)Nc3nnc(-c4ccc(Cl)cc4)o3)c(-c3cc(OC)c(OC)c(OC)c3)oc2c1` [A5, N-(5–(4-chlorophenyl)-1,3,4-oxadiazol-2-yl)-2–(5,7-dimethoxy-4-oxo-2–(3,4,5-trimethoxyphenyl)-4H-chromen-3-yloxy)acetamide] registered a melting point of 227 to 229 °C. The IC50 in data set [1] came to 1990 ± 130 µM. Further, in data set [2], the IC50 is 25.4 ± 0.59 µM. Further, the IC50 in [3] was found to be 15.2 ± 0.41 µM. Further, in data set [4], the IC50 was more than 100 µM. In data set [5], it took 20.1 ± 0.62 µM to reach half-maximal inhibition (IC50). At telomerase, this compound showed an IC50 of 0.81 ± 0.13 µM. For the same compound, the IC50 in [6] was more than 100 µM.
